Experimental findings from patent publication US7393848B2, “Certain heterocyclic substituted imidazo[1,2-A]pyrazin-8-ylamines and methods of inhibition of Bruton's tyrosine kinase by such compounds” (CGI Pharmaceuticals, Inc., priority 2003, dated 2008) are described below.

In the assay the target is T1, full length human wildtype Btk (Homo sapiens, UniProt Q06187).
T1 construct: V5 (C); 6xHis (C); made in house; host or cells: Sf9 insect cells (baculovirus, pFastBac / Bac-to-Bac)
Kind of assay: Biochemical Btk Assay (time-resolved fluorescence kinase assay). The conditions noted are these: 40 μM ATP, 1 hour at room temperature; read-out: IC50 value in the Btk biochemical assay of Example 7. Here is the method: A generalized procedure for one standard biochemical Btk Kinase Assay used to test compounds disclosed in this application is as follows.
A master mix minus Btk enzyme is prepared containing 1× Cell Signaling kinase buffer (25 mM Tris-HCl, pH 7.5, 5 mM […]-glycerophosphate, 2 mM dithiothreitol, 0.1 mM Na3VO4, 10 mM MgCl2), 0.5 μM Promega PTK Biotinylated peptide substrate 2, and 0.01% BSA. A master mix plus Btk enzyme is prepared containing 1× Cell Signaling kinase buffer, 0.5 μM PTK Biotinylated peptide substrate 2, 0.01% BSA, and 100 ng/well (0.06 mU/well) Btk enzyme. Btk enzyme is prepared as follows: full length human wildtype Btk (accession number NM-000061) with a C-terminal V5 and 6× His tag was subcloned into pFastBac vector for making baculovirus carrying this epitope-tagged Btk. […] A quantity of 1.25 μL of compounds in 5% DMSO is transferred to a 96-well ½ area Costar polystyrene plate. […] A quantity of 18.75 μL of master mix minus enzyme (as a negative control) and master mix plus enzyme is transferred to appropriate wells in 96-well ½ area costar polystyrene plate. […] The plate is read using time-resolved fluorescence with a Perkin Elmer Envision using excitation filter 330 nm, emission filter 665 nm, and 2nd emission filter 615 nm. IC50 values are subsequently calculated.

T1 sequence (Q06187 whole entry): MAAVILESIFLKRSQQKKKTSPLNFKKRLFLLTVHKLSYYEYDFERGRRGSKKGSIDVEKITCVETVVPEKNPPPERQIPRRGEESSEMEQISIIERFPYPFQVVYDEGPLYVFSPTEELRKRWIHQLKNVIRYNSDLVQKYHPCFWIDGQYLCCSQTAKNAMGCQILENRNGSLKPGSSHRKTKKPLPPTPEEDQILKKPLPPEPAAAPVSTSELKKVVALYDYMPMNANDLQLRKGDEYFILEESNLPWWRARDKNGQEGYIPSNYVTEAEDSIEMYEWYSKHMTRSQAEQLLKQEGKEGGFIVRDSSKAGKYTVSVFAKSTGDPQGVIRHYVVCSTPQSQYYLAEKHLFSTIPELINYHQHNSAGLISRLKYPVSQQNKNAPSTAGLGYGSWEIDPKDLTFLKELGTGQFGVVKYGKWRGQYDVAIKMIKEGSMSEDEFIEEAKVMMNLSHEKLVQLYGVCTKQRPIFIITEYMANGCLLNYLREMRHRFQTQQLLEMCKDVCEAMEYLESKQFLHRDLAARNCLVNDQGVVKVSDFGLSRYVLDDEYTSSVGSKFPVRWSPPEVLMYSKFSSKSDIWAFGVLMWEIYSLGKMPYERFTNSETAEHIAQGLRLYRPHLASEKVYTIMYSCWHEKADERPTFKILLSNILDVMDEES

The term IC50 denotes the concentration needed to halve the response being measured. As for `CC(C)(C)c1ccc(C(=O)Nc2cccc(-c3cn4ccnc4c(Nc4ccc5[nH]ncc5c4)n3)c2)cc1` [Example 6], the IC50 is less than 1000 nM.
